Assay results reported in US11034674B2, “Methods of treating inflammation or neuropathic pain” (H. Lundbeck A/S, priority 2015, dated 2021).
Structures can show the parent of a compound that is named as a salt. Where two headings read alike, the source gives them in different places.

Legend:
[1] = Phase 1 single- and multiple-dose study: plasma pharmacokinetics; assay type: in vivo; conditions: human, po, fasted; for AUC(0-inf): read-out: AUCinf (mean); for half-life: read-out: T1/2 (median) (converted)
Source text: (§1) General Design and Methodology: The purpose of this study is to assess the initial safety, tolerability, pharmacokinetics, and pharmacodynamics of Compound 1 (administered as Capsules of the hydrochloride salt of Compound 1) in healthy adults. […] Data from this study is used to select doses and dose regimens for subsequent clinical studies.
There is a minimum 72-hour period between administration of study drug in Panels A and B. In addition, there is a minimum 2-week washout between Panel B Period 2 and Panel A Period 3 in order to evaluate available preliminary pharmacokinetic data along with safety and tolerability data from the preceding doses before proceeding with dosing in Periods 3 and 4. All doses are administered orally, together with approximately 240 mL of water. Water is otherwise restricted from 1 hour prior to, and for 1 hour after administration of study drug. In each treatment period, with the exception of Panel A Period 4 (food effect treatment period); study drug is administered after an overnight fast (for approximately 8 hours).
The allocation schedule for Periods 2 and 4 (fasted versus fed) are the same such that the same subjects receive active drug or matching placebo in the respective treatment periods.
PK: Descriptive statistics are provided by treatment (Part 1) and by treatment and day (Part 2). Minimum, median, maximum and CV are provided for all PK parameters. Arithmetic mean and standard deviation based on the raw scale are provided for AUC and Cmax. In addition, the percent CV of AUC and Cmax is also provided and calculated according to the following formula: 100×sqrt(exp(s2)−1), where s2 is the observed variance on the natural log-scale. Harmonic mean and jack-knife SD is provided for half-life. Time to steady-state, and evaluation of PK linearity are evaluated in an exploratory fashion.

2-AG [2] = assay: Rat plasma 2-AG levels after single PO dose (LC-MS/MS); assay type: in vivo; conditions: single PO doses up to 30 mg/kg, 4 h
Description: […]. MGLL activity was assessed by ABPP analysis in PBMC lysates and plasma 2-AG concentrations were measured by liquid chromatography tandem mass spectrometry (LC-MS/MS).

2-AG [3] = assay: Mouse brain 2-AG concentrations after PO dose; conditions: single-dose PO
2-AG [4] = assay: 2-AG and anandamide concentrations in rat tissues and plasma after oral dose; assay type: in vivo
Source text: MGLL target engagement inhibits the hydrolysis of 2-AG, elevating tissue 2-AG concentrations, which can be measured in rodent tissues and fluids by MS. Elevation of 2-AG results in enhanced cannabinoid receptor signaling and physiological responses.
Inhibition of MGLL causes accumulation of 2-AG in the rodent brain and periphery.

formalin-challenged rats = assay: Rat formalin paw test
in vivo = conditions: rat, po, 0.5 mg/kg
MGLL = MGLL (Canis lupus familiaris, UniProt A0A8I3PC77); assay: biochemical
Description: In vitro potency was determined using activity-based protein profiling (ABPP) which is a functional proteomic technology that uses chemical probes to covalently modify enzyme active sites in an activity-dependent manner (e.g., only catalytically active enzymes will react and become labeled with the ABPP probe). Identification of the proteins that were labeled by the probes was accomplished using polyacrylamide gel electrophoresis or mass spectrometry.

[5] = Phase 1 single- and multiple-dose study: safety and tolerability; assay type: in vivo, human
Description: as §1
In Part 2, Panels are dosed sequentially.

[6] = 100 mg, single oral dose 100 mg, Panel A, Period 3 (A3)
[7] = 100 mg, single oral dose 100 mg, Panel B, Period 4 (B4)
[8] = 200 mg, single oral dose 200 mg
[9] = Panel C (10 mg QD×14 days) or Panel D (20 mg QD×14 days)

Chain of MGLL (A0A8I3PC77 1-304): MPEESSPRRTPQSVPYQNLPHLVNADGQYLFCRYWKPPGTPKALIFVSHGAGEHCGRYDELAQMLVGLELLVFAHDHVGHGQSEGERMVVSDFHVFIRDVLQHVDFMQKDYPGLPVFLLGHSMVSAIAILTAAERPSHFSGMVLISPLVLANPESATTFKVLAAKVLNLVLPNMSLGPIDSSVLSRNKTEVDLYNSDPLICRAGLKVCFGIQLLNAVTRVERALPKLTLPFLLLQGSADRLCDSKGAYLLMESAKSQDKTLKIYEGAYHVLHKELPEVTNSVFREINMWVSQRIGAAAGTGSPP

With `O=C(OC(C(F)(F)F)C(F)(F)F)N1CCN(Cc2ccc(C(F)(F)F)cc2N2CCCC2)CC1` [Compound 1, 1,1,1,3,3,3-hexafluoropropan-2-yl 4-(2-(pyrrolidin-1-yl)-4-(trifluoromethyl)benzyl)piperazine-1-carboxylate] the Cmax ([1]; 2 mg, single oral dose 2 mg) was 2.9 ng/mL, the Tmax ([1]; 2 mg, single oral dose 2 mg) was 1.5 h and the AUC(0-inf) ([1]; 2 mg, single oral dose 2 mg) was 15.9 ng·h/mL. It also gave a half-life ([1]; 2 mg, single oral dose 2 mg) of 1.51 h, a Cmax ([1]; 6 mg, single oral dose 6 mg) of 10.2 ng/mL and a Tmax ([1]; 6 mg, single oral dose 6 mg) of 1.67 h. The AUC(0-inf) ([1]; 6 mg, single oral dose 6 mg) was 47 ng·h/mL, the half-life ([1]; 6 mg, single oral dose 6 mg) was 2.23 h and the Cmax ([1]; 18 mg, single oral dose 18 mg) was 23.5 ng/mL. It also gave a Tmax ([1]; 18 mg, single oral dose 18 mg) of 2 h, an AUC(0-inf) ([1]; 18 mg, single oral dose 18 mg) of 109 ng·h/mL and a half-life ([1]; 18 mg, single oral dose 18 mg) of 3.02 h. The Cmax ([1]; 50 mg, single oral dose 50 mg) was 59.8 ng/mL, the Tmax ([1]; 50 mg, single oral dose 50 mg) was 1.8 h and the AUC(0-inf) ([1]; 50 mg, single oral dose 50 mg) was 296 ng·h/mL. The half-life ([1]; 50 mg, single oral dose 50 mg) was 3.44 h, the Cmax [1, 6] was 45.7 ng/mL and the Tmax [1, 6] was 3.17 h. It also gave an AUC(0-inf) [1, 6] of 289 ng·h/mL, a half-life [1, 6] of 5.82 h and a Cmax [1, 7] of 76 ng/mL. For the same molecule, the Tmax [1, 7] was 1.83 h, the AUC(0-inf) [1, 7] was 512 ng·h/mL and the half-life [1, 7] was 3.76 h. It also gave a Cmax [1, 8] of 109 ng/mL, a Tmax [1, 8] of 3 h and an AUC(0-inf) [1, 8] of 766 ng·h/mL. For the same molecule, the half-life [1, 8] was 3.61 h, the “increase of plasma 2-AG levels” value (2-AG [2]) was “up to 7 fold” and the “increase of brain 2-AG concentrations” value (2-AG [3]) was “up to 30 fold”. For the same molecule, the “elevation in brain 2-AG concentrations at the Phase 2 ED50” value (2-AG [4]; rat formalin model, 0.5 mg/kg PO) was “approximately 3 fold”, the “brain levels of the endocannabinoid anandamide” value (2-AG [4]; rat, single oral doses) was “not elevated” and the “increase of 2-AG concentration in plasma” value (2-AG [4]; rat, single oral doses) was 7 fold. The ED50 (2-AG [4]; rat, single oral doses up to 30 mg/kg, 4 hours, read-out: ED50 for increase of brain 2-AG concentrations (average)) was 1.3 mg/kg, the “effect of single and repeated administration on pain behaviors” value (formalin-challenged rats; 1 mg/kg, single vs 5 days QD, n=10, repeat dose group not statistically different from vehicle) was “numerically reduced pain behaviors to a similar extent” and the “ED50 for exposure associated with efficacy” value (formalin-challenged rats; rat formalin nocifensive model) was 0.4 µM·h. The “overt behavioral or locomotor perturbations” value (formalin-challenged rats; rats, at the ED50 dose and at oral doses 20-fold higher) was “not apparent”, the “Phase 2 ED50, paw licking behavior” value (formalin-challenged rats; single dose PO, 4 hours pre-test, n=10) was 0.5 mg/kg and the “effect on nociception in formalin-challenged rats” value (formalin-challenged rats; single dose up to 10 mg/kg PO, 4 hours pre-test, early (Phase 1) and delayed (Phase 2) phases) was “dose-dependent antinociceptive effects”. For the same molecule, the concentration at 4 h (in vivo; blood) was 7 nM, the concentration at 4 h (in vivo; brain) was 5 nM and the IC50 (MGLL; MGLL IC50, Dog Prefrontal Cortex, 30 min pre-incubation at 37° C., mean ± SEM, n = 3) was 0.012 ± 0.002 µM. For the same molecule, the IC50 (MGLL; MGLL IC50, dog MGLL, summary statement for all species) was < 0.03 µM.

For `O=C(OC(C(F)(F)F)C(F)(F)F)N1CCN(Cc2ccc(C(F)(F)F)cc2N2CCCC2)CC1` [Compound 1 HCl, 1,1,1,3,3,3-hexafluoropropan-2-yl 4-(2-(pyrrolidin-1-yl)-4-(trifluoromethyl)benzyl)piperazine-1-carboxylate], the “adverse events leading to discontinuation” value [5, 9] was “no adverse events leading to the discontinuation of any subjects”, the “changes in vital signs, laboratory test values, or ECGs” value [5, 9] was “no clinically significant changes” and the “vital sign, safety laboratory, or electrocardiographic findings” value ([5]; healthy male subjects, fasting state, single oral doses up to 200 mg) was “not associated with any vital sign, safety laboratory, or electrocardiographic findings of note”.
